A word on the pIC50: it is the IC50 on a negative log10 scale, so that one unit is a factor of ten. One may read the clearance as the volume of plasma or blood freed of the substance per unit of time. Lower therefore signals a low capacity for elimination. The AUC(0-t) is the area under the concentration-time curve up to a stated or last time point. Read a low AUC(0-t) as less exposure. A word on the MRT: it is the average time that molecules of a dose stay in the body.

pIC50: −log10 of the molar value.

Experimental findings from ChEMBL document CHEMBL4382258, “Design and Optimization of Sulfone Pyrrolidine Sulfonamide Antagonists of Transient Receptor Potential Vanilloid-4 with in Vivo Activity in a Pulmonary Edema Model” (J Med Chem, 2018) are described below.

Data set [1] is described as follows: Plasma concentration in Sprague-Dawley rat heart failure-induced pulmonary edema model at 0.02 ug/kg, iv bolus loading dose followed by 0.3 ug/kg/min, iv continuous infusion dose for 60 mins. The format is ADME, organism-based. The settings on record: 2e-05 mg/kg.
A short description of data set [2]: Dose normalized AUC (0 to t) in dog at 0.9 mg/kg, po. It counts as ADME, organism-based, Canis lupus familiaris. Particulars: in vivo.
Data set [3] is described as follows: Clearance adjusted for unbound fraction in Sprague-Dawley rat at 1 mg/kg, iv administered as 30 mins infusion by LC/MS/MS analysis. It counts as ADME, organism-based. The settings on record: in vivo, 0.5 h.
Data set [4] in a line: Dose normalized AUC (0 to t) in dog at 30 mg/kg, po. It counts as ADME, organism-based, Canis lupus familiaris. Particulars: in vivo.
Data set [5] can be described thus: Volume of distribution at steady state in Sprague-Dawley rat at 1 mg/kg, iv or 2 mg/kg, po by LC/MS/MS analysis. It counts as ADME, organism-based. The settings on record: in vivo, read-out: Vdss.
Data set [6] in a line: Permeability of the compound by PAMPA. The settings on record: read-out: permeability. The format is ADME. Background: PAMPA measures passive passage across an artificial lipid membrane.
The nature of data set [7]: Dose normalized AUC (0 to t) in rat at 98 mg/kg, po. The format is ADME, organism-based. Particulars: in vivo.
Data set [8] addresses Transient receptor potential cation channel subfamily A member 1 (Homo sapiens, UniProt O75762). Nature of the data set: Antagonist activity at TRPA1 (unknown origin).
In data set [9] the target is Transient receptor potential cation channel subfamily M member 8 (Homo sapiens, UniProt Q7Z2W7). Nature of the data set: Antagonist activity at TRPM8 (unknown origin).
Transient receptor potential cation channel subfamily M member 8, sequence (Q7Z2W7 whole entry, the tested form may be a part): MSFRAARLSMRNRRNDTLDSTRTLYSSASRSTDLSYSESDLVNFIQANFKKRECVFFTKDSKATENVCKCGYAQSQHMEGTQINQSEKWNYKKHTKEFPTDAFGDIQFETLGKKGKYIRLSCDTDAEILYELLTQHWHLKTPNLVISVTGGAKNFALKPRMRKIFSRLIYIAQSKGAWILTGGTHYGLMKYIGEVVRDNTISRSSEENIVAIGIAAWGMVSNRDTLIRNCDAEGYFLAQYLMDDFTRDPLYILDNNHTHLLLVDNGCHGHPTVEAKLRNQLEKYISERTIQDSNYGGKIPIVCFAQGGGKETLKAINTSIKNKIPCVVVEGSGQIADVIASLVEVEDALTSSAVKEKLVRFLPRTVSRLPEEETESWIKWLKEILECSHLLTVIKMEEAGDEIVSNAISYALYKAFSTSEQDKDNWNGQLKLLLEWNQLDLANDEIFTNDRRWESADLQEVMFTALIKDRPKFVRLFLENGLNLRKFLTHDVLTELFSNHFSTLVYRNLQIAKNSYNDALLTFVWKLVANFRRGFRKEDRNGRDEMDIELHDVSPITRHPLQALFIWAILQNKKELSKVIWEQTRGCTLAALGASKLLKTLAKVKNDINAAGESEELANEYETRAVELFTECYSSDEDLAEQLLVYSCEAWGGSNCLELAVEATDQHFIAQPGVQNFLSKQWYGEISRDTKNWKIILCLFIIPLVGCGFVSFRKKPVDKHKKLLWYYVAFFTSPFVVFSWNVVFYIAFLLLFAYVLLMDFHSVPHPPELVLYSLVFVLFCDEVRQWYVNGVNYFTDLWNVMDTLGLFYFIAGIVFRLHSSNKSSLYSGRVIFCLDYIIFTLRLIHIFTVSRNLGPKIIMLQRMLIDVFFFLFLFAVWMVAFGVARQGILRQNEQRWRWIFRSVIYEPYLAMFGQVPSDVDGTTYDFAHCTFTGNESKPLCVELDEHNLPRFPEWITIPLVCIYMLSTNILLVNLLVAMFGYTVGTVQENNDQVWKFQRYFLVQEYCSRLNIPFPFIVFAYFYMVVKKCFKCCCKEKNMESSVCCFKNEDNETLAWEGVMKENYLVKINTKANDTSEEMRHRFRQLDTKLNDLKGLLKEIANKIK
Data set [10] can be described thus: Clearance in Sprague-Dawley rat at 1 mg/kg, iv administered as 30 mins infusion by LC/MS/MS analysis. It counts as ADME, organism-based. Particulars: in vivo.
Data set [11] in a line: AUC (0 to t) in dog at 30 mg/kg, po. It counts as ADME, organism-based, Canis lupus familiaris. Particulars: in vivo.
The nature of data set [12]: AUC (0 to t) in dog at 0.9 mg/kg, po. It counts as ADME, organism-based, Canis lupus familiaris. The settings on record: in vivo.
Data set [13] addresses Transient receptor potential cation channel subfamily V member 4 (Homo sapiens, UniProt Q9HBA0). Nature of the data set: Antagonist activity at human TRPV4 expressed in BHK/AC9 cells assessed as inhibition of GSK634775-induced […] pre-incubated for 10 mins followed by agonist addition by Fluo-4-AM dye-based FLIPR assay. It counts as cell-based.
Data set [14] addresses Transient receptor potential cation channel subfamily M member 2 (Homo sapiens, UniProt O94759). Nature of the data set: Antagonist activity at TRPM2 (unknown origin).
Data set [15] is described as follows: MRT in Sprague-Dawley rat at 1 mg/kg, iv or 2 mg/kg, po by LC/MS/MS analysis. The format is ADME, organism-based. Particulars: in vivo.

Transient receptor potential cation channel subfamily A member 1, sequence (O75762 whole entry): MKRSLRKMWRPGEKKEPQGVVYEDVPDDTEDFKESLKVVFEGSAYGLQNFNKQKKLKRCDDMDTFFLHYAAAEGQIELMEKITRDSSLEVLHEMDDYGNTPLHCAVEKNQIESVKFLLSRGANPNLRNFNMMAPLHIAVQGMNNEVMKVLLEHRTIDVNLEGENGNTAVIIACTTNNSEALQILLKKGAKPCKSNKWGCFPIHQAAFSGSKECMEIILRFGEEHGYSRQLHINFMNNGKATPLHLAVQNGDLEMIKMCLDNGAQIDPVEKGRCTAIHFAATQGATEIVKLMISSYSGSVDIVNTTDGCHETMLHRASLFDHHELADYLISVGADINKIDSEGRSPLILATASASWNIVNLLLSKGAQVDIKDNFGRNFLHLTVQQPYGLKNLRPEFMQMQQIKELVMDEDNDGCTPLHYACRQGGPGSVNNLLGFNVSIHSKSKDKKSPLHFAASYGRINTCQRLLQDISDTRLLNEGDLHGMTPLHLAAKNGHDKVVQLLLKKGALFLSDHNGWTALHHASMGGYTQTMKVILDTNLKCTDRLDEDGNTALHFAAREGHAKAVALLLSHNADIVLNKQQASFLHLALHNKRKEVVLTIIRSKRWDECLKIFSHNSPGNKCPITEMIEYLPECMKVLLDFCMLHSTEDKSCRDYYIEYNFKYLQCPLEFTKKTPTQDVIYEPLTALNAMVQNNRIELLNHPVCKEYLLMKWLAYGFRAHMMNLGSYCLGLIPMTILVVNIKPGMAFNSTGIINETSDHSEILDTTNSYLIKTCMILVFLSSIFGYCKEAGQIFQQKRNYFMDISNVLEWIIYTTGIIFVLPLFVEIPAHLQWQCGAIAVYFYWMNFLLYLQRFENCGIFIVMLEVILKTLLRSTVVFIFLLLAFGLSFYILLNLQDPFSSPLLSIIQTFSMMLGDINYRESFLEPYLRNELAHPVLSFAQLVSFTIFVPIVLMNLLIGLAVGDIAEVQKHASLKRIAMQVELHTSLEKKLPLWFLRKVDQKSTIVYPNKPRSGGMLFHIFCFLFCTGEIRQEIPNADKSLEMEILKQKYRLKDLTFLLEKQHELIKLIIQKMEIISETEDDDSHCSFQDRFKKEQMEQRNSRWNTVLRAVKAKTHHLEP
Transient receptor potential cation channel subfamily M member 2, sequence (O94759 whole entry): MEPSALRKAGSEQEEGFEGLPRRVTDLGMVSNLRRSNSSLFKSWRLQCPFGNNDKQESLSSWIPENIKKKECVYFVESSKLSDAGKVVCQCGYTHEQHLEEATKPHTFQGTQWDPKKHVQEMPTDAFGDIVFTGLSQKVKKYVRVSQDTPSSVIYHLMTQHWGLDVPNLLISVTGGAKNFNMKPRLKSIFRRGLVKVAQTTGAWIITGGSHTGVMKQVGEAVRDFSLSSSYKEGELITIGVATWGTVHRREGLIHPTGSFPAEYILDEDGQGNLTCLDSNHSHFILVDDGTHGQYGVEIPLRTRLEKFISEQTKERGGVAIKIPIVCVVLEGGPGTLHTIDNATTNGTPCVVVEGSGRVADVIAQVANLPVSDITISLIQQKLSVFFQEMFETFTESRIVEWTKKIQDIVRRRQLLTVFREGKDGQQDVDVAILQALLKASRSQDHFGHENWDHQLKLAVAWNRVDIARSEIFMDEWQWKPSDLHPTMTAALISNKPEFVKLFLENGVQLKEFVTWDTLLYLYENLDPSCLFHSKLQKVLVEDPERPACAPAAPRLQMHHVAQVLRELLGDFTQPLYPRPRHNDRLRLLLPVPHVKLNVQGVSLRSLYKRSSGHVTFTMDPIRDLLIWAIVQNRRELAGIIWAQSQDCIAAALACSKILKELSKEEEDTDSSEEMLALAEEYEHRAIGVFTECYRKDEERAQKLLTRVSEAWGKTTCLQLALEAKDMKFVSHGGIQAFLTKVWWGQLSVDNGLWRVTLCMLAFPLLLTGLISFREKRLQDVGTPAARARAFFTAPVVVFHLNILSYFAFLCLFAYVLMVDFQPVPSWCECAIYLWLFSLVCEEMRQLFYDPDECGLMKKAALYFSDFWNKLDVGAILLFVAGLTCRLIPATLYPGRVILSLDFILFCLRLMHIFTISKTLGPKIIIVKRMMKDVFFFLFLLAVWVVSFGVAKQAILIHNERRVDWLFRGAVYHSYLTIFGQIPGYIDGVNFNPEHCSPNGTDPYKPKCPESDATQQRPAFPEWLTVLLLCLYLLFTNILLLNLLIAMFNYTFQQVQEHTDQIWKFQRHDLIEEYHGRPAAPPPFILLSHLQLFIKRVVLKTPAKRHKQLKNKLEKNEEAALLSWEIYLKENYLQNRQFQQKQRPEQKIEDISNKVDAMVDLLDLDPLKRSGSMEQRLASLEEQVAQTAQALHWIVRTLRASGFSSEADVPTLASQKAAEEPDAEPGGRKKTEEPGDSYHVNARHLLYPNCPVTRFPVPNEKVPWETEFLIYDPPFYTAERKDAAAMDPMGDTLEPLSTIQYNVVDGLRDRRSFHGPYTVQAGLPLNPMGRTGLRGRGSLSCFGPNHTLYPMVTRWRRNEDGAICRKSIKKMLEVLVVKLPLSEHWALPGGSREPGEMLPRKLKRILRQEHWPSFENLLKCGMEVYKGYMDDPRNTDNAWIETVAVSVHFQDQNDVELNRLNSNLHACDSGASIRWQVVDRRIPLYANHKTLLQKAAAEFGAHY
Transient receptor potential cation channel subfamily V member 4, sequence (Q9HBA0 whole entry): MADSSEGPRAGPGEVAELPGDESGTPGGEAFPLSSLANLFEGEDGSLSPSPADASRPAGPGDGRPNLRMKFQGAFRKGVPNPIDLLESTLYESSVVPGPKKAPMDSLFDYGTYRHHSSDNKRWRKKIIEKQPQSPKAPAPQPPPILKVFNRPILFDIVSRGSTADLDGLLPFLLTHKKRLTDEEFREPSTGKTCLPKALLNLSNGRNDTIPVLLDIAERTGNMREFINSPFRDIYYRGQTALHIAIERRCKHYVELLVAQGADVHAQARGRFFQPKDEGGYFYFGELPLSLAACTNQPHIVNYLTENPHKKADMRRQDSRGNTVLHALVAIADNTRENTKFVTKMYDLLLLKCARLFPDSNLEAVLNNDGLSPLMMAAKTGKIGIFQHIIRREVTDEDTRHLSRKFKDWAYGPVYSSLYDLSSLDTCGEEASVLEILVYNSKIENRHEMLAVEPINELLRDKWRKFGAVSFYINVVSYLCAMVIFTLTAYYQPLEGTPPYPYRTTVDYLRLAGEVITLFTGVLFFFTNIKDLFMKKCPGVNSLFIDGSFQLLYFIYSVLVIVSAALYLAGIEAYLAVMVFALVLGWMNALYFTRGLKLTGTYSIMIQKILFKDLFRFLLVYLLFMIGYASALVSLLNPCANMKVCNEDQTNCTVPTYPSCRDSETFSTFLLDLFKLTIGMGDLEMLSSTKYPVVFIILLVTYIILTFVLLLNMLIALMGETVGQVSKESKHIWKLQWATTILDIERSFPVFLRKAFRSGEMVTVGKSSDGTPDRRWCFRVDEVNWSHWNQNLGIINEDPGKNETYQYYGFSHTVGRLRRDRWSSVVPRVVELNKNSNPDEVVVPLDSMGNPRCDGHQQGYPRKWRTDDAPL

`N#Cc1ccc(S(=O)(=O)N2C[C@H](S(=O)(=O)c3ccc(Cl)cc3)[C@](O)(CO)C2)c(Cl)c1` gave a concentration at 1 h in data set [1] of 14 nM. In addition, the figures for the AUCt/dose in data set [2], in data set [4] and in data set [7] were 2.9 kg·h/L, 3 kg·h/L and 0.4 kg·h/L, respectively. In [3], this molecule came in with a CL free of 12 mL/min/kg. Also, the Vd in data set [5] came out at 4.5 L/kg. Besides, the Papp in [6] is 35 ×10⁻⁶ cm/s. Besides, the negative-log IC50 (pIC50) in [8] is less than 4.52; in [9], less than 4.52; in data set [13], 8.49; in data set [14], less than 4.52. Further, the clearance in data set [10] worked out at 49 mL/min/kg. The exposure AUC(0-t) is 90000 ng·h/mL in data set [11] and 2500 ng·h/mL in data set [12]. Moreover, the MRT in data set [15] stood at 1.6 h.
